One test concerns the target T1, human FPRL2 (Homo sapiens, UniProt P25089).
T1 construct: expressed in transfected cells; host or cells: HEK293 (HEK293-hFPRL2-Gα16)
T1 sequence (P25089 1-353): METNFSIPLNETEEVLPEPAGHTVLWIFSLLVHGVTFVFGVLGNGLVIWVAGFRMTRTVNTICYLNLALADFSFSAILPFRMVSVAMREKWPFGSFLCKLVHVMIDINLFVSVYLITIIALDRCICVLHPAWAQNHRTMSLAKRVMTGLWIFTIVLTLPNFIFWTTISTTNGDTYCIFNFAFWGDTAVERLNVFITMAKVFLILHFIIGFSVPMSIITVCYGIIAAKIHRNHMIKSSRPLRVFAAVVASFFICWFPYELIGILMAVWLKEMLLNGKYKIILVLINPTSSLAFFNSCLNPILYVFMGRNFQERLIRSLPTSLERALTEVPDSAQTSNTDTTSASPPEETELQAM
In words: Intracellular calcium measurements (FLIPR), agonistic activity in HEK293-hFPRL2-Gα16 cells. Type of test: cell-based. Particulars: Fluo-4 calcium FLIPR, normalized to GLY14-Humanin 100 nM. As to the method: (§1) The ALX receptor and FPRL2 agonistic activities of the compounds of formula (I) are determined in accordance with the following experimental method.
(§2) Intracellular Calcium Measurements:
Cells expressing recombinant human FPRL2 and the G-protein Gα16 (HEK293-hFPRL2-Gα16) were grown to 80% confluency in Growing Medium (GM). […] Stock solutions of test compounds were made up at a concentration of 10 mM in DMSO, and serially diluted in AB to concentrations required for activation dose response curves. Gly14-Humanin (Humanin peptide with replacement of Serine by Glycine at position 14, Phoenix Peptides) was used as a reference agonist. FLIPR384 or FLIPR Tetra instruments (Molecular Devices) were operated according to the manufacturer's standard instructions, adding 4 μl of test compound dissolved at 10 mM in DMSO and diluted prior to the experiment in assay buffer to obtain the desired final concentration. Changes in fluorescence were monitored before and after the addition of test compounds at lex=488 nm and lem=540 nm. Emission peak values above base level after compounds addition were exported after base line subtraction. Values were normalized to high-level control (GLY14-Humanin compound, 100 nM final concentration) after subtraction of the base line value (AB addition).

Another test has as its target T2, human ALX receptor (Homo sapiens, UniProt P25090).
T2 construct: expressed in transfected cells; host or cells: HEK293 (HEK293-hALXR-Gα16)
T2 sequence (P25090 1-351): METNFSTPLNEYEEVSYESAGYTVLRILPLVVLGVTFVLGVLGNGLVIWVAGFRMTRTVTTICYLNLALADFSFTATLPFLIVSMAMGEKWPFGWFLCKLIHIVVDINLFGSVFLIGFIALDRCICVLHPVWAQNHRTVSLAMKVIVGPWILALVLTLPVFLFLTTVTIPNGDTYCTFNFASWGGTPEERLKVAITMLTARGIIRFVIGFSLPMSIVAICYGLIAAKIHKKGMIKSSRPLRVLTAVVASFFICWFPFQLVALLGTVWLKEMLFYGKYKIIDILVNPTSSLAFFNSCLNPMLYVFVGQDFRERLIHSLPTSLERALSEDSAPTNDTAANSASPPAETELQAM
Briefly: Intracellular calcium measurements (FLIPR), agonistic activity in HEK293-hALXR-Gα16 cells. Format: cell-based. Particulars: Fluo-4 calcium FLIPR, normalized to WKYMVm 10 nM. As to the method:
as §1, §2
Cells expressing recombinant human ALX receptor and the G-protein Gα16 (HEK293-hALXR-Gα16) were grown to 80% confluency in Growing Medium (GM). Cells were detached from culture dishes with a cell dissociation buffer (Invitrogen, 13151-014), and collected by centrifugation at 1,000 rpm at rt for 5 min in Assay Buffer (AB) (equal parts of Hank's BSS (Gibco, 14065-049) and DMEM without Phenol Red (Gibco, 11880-028)). After 60 min incubation at 37° C. under 5% CO2 in AB supplemented with 1 μM Fluo-4 (AM) (Invitrogen, F14202), and 20 mM HEPES (Gibco, 15630-056), the cells were washed and resuspended in AB. They were then seeded onto 384-well FLIPR assay plates (Greiner, 781091) at 50′000 cells in 70 μl per well and sedimented by centrifugation at 1,000 rpm for 1 min. Stock solutions of test compounds were made up at a concentration of 10 mM in DMSO, and serially diluted in AB to concentrations required for activation dose response curves. WKYMVm (Phoenix Peptides) was used as a reference agonist. FLIPR384 or FLIPR Tetra instruments (Molecular Devices) were operated according to the manufacturer's standard instructions, adding 4 μl of test compound dissolved at 10 mM in DMSO and diluted prior to the experiment in assay buffer to obtain the desired final concentration. Changes in fluorescence were monitored before and after the addition of test compounds at lex=488 nm and lem=540 nm. Emission peak values above base level after compounds addition were exported after base line subtraction. Values were normalized to high-level control (WKYMVm compound, 10 nM final concentration) after subtraction of the base line value (AB addition).

SMILES strings stand for the structures.

In the case of `Cc1ccc(CNC(=O)[C@H]2[C@H](C(=O)NCCCCN3CCCC3)[C@H]3C=C[C@@H]2C32CC2)c(C)c1` (racemic) [Example 347, (5R*)—N^5-(2,4-Dimethylphenyl-methyl)-(6R*)—N^6-(4-pyrrolidino-butyl)-(4S*,7R*)-[4,7-ethenylene-spiro[2.4]heptane]-5,6-dicarboxamide], the EC50 on human FPRL2 was found to be 417 nM; on human ALX receptor, 1800 nM.

With `CNC(=O)C(NC(=O)C1C(C(=O)Nc2ccc(Br)cc2)C2C=CC1C21CC1)C(C)(C)C` [Example 96, (5R*)—N^5-(4-Bromophenyl)-(6R*)—N^6—[(2S)-3,3-dimethyl-1-(methylamino)-1-oxobutan-2-yl]-(4S*,7R*)-[4,7-ethenylene-spiro[2.4]heptane]-5,6-dicarboxamide], the EC50 on human FPRL2 is 8050 nM; on human ALX receptor it was 373 nM.

As for `CCN(CC)CCCCNC(=O)[C@H]1[C@H](C(=O)Nc2ccc(Br)cc2)[C@@H]2C=C[C@H]1C21CC1` (racemic) [Example 11, (5R*)—N^5-(4-Bromophenyl)-(6R*)—N^6-(4-(N,N-diethyl-amino)-butyl)-(4S*,7R*)-[4,7-ethenylene-spiro[2.4]heptane]-5,6-dicarboxamide], the EC50 came to 329 nM at human FPRL2 and 1 nM at human ALX receptor.

Take `CNCCNC(=O)[C@H]1[C@H](C(=O)Nc2ncc(Br)s2)[C@@H]2C=C[C@H]1C21CC1` (racemic) [Example 301, (5R*)—N^5-(5-Bromo-thiazol-2-yl)-(6R*)—N^6-(2-methylamino-ethyl)-(4S*,7R*)-[4,7-ethenylene-spiro[2.4]heptane]-5,6-dicarboxamide]: the EC50 on human FPRL2 stood at 2700 nM; on human ALX receptor, 98 nM.

For `O=C(NCCCCN1CCCC1)[C@H]1[C@H](C(=O)Nc2ccc(Br)cc2)[C@@H]2C=C[C@H]1C21CC1` [Example 2, (5R)—N^5-(4-Bromophenyl)-(6R)—N^6-(4-pyrrolidin-1-yl-butyl)-(4S,7R)-[4,7-ethenylene-spiro[2.4]heptane]-5,6-dicarboxamide], the EC50 on human FPRL2 was 46 nM; at human ALX receptor, 0.1 nM.

For `O=C(NCCc1ccccn1)[C@H]1[C@H](C(=O)Nc2ccc(Br)cc2)[C@@H]2C=C[C@H]1C21CC1` (racemic) [Example 70, (5R*)—N^5-(4-Bromophenyl)-(6R*)—N^6-(2-pyridin-2-yl-ethyl)-(4S*,7R*)-[4,7-ethenylene-spiro[2.4]heptane]-5,6-dicarboxamide], the EC50 at human FPRL2 is 4380 nM; on human ALX receptor it was 61 nM.

Take `O=C(NCCCCN1CCCC1)[C@H]1[C@H](C(=O)NCc2cccc(Br)c2)[C@@H]2C=C[C@H]1C21CC1` (racemic) [Example 143, (5R*)—N^5-(3-Bromophenyl-methyl)-(6R*)—N^6-(4-pyrrolidin-1-yl-butyl)-(4S*,7R*)-[4,7-ethenylene-spiro[2.4]heptane]-5,6-dicarboxamide]: the EC50 at human FPRL2 worked out at 94 nM; on human ALX receptor, 2060 nM.

Regarding `Cc1ccc(NC(=O)C2C(C(=O)NCCCCN3CCCC3)C3C=CC2C32CC2)cn1` (stereo not drawn) [Example 253, (5R*)—N^5-(2-Methyl-pyridin-5-yl)-(6R*)—N^6-(4-pyrrolidin-1-yl-butyl)-(4S*,7R*)-[4,7-ethenylene-spiro[2.4]heptane]-5,6-dicarboxamide], the figures for the EC50 on human FPRL2 and on human ALX receptor were 1770 nM and 131 nM, respectively.

On to `Cc1onc(-c2ccccc2)c1CNC(=O)[C@H]1[C@H](C(=O)Nc2ccc(Br)cc2)[C@@H]2C=C[C@H]1C21CC1` (racemic) [Example 101, (5R*)—N^5-(4-Bromophenyl)-(6R*)—N^6-[(5-methyl-3-phenyl-isoxazol-4-yl)-methyl]-(4S*,7R*)-[4,7-ethenylene-spiro[2.4]heptane]-5,6-dicarboxamide], for which the results for the EC50 at human FPRL2 and on human ALX receptor were 457 nM and 812 nM, respectively.

On to `CCSCCNC(=O)[C@H]1[C@H](C(=O)Nc2ccc(Br)cc2)[C@@H]2C=C[C@H]1C21CC1` (racemic) [Example 24, (5R*)—N^5-(4-Bromophenyl)-(6R*)—N^6-(2-ethylsulfanyl-ethyl)-(4S*,7R*)-[4,7-ethenylene-spiro[2.4]heptane]-5,6-dicarboxamide], for which the EC50 at human FPRL2 was 4120 nM; at human ALX receptor it was 3.7 nM.

With `Cc1nc(CC(=O)NC[C@H]2[C@H](C(=O)Nc3ccc(Br)cc3)[C@@H]3C=C[C@H]2C32CC2)c(C)s1` (racemic) [Example 168, (5R*)—N^5-(4-Bromo-phenyl)-(6R*)-6-[(2-(2,5-dimethyl-thiazol-4-yl)-acetylamino)-methyl]-(4S*,7R*)-[4,7-ethenylene-spiro[2.4]heptane]-5-carboxamide], the EC50 at human FPRL2 was found to be 862 nM; on human ALX receptor, 71 nM.

In the case of `O=C(CCc1cccnc1)NC[C@H]1[C@H](C(=O)Nc2ccc(Br)cc2)[C@@H]2C=C[C@H]1C21CC1` (racemic) [Example 174, (5R*)—N^5-(4-Bromo-phenyl)-(6R*)-6-[(3-pyridin-3-yl-propionylamino)-methyl]-(4S*,7R*)-[4,7-ethenylene-spiro[2.4]heptane]-5-carboxamide], the EC50 on human FPRL2 was 4810 nM; at human ALX receptor, 136 nM.

Take `CN1CCN(CCCNC(=O)[C@H]2[C@H](C(=O)Nc3ccc(Br)cc3)[C@@H]3CC[C@H]2C32CC2)CC1` (racemic) [Example 111, (5R*)—N^5-(4-Bromophenyl)-(6R*)—N^6-(3-(4-methyl-piperazin-1-yl)-propyl)-(4S*,7R*)-[4,7-ethylene-spiro[2.4]heptane]-5,6-dicarboxamide]: the EC50 stood at 71 nM at human FPRL2 and 1.3 nM on human ALX receptor.

With `NC(=O)CCNC(=O)[C@H]1[C@H](C(=O)Nc2ncc(Br)s2)[C@@H]2CC[C@H]1C21CC1` [Example 239, (5R)—N^5-(5-Bromo-thiazol-2-yl)-(6R)—N^6-(3-amino-3-oxopropyl)-(4S,7R)-[4,7-ethylene-spiro[2.4]heptane]-5,6-dicarboxamide], the EC50 is > 25000 nM at human FPRL2 and 15 nM on human ALX receptor.

`Cc1cc(CNC(=O)[C@H]2[C@H](C(=O)NCCCCN3CCCC3)[C@H]3C=C[C@@H]2C32CC2)no1` (racemic) [Example 255, (5R*)—N^5-(5-Methyl-isoxazol-3-yl-methyl)-(6R*)—N^6-(4-pyrrolidin-1-yl-butyl)-(4S*,7R*)-[4,7-ethenylene-spiro[2.4]heptane]-5,6-dicarboxamide]: the values for the EC50 at human FPRL2 and at human ALX receptor were 489 nM and 40 nM, respectively.

`NCCCNC(=O)[C@H]1[C@H](C(=O)Nc2ccc(Br)cc2)[C@@H]2C=C[C@H]1C21CC1` (racemic) [Example 16, (5R*)—N^5-(4-Bromophenyl)-(6R*)—N^6-(3-amino-propyl)-(4S*,7R*)-[4,7-ethenylene-spiro[2.4]heptane]-5,6-dicarboxamide]: the EC50 on human FPRL2 worked out at 3920 nM; on human ALX receptor, 1.4 nM.

Source of the values: US8563714B2, “Bridged spiro [2.4] heptane derivatives as ALX receptor and/or FPRL2 agonists” (Actelion Pharmaceuticals Ltd., priority 2009, dated 2013).
